Test results: ChEMBL document CHEMBL4823244, “Synthesis of norisoboldine derivatives and bioactivity assay for inducing the generation of regulatory T cells” (Bioorg Med Chem Lett, 2021)
Activity calls are given as the source filed them. No cut-off for these calls is given here.

Tests used:
EL4 = test: Cytotoxicity against mouse EL4 cells assessed as effect on cell viability at 1 to 10 uM measured after 72 hrs by MTT assay; assay type: cell-based; conditions: el4, 72 h, dose 1-10 µM
Mus musculus [1] = test: Antiinflammatory activity in DSS-induced ulcerative colitis mouse model assessed as protection against inflammation of colons at 20 to 40 mg/kg, po administered for 10 consecutive days by HE staining based histopathological analysis; assay type: functional, organism-based; conditions: dose 20-40 mg/kg, time 10.0 day
Mus musculus [2] = test: Antiinflammatory activity in DSS-induced ulcerative colitis mouse model assessed as protection against colon destruction at 20 to 40 mg/kg, po administered for 10 consecutive days by HE staining based histopathological analysis; assay type: functional, organism-based; conditions: dose 20-40 mg/kg, time 10.0 day
T-cell [3] = test: Induction of cell differentiation in anti-CD3/CD28 stimulated naive T-cells assessed as upregulation of Foxp3 mRNA expression at 3 to 30 uM measured after 72 hrs by Q-PCR analysis; assay type: functional, cell-based; conditions: dose 3-30 µM
Mus musculus [4] = test: Induction of Treg cell differentiation in DSS- induced ulcerative colitis mouse model assessed as number of Treg cells in mesenteric lymph nodes at 40 mg/kg, po administered for 10 consecutive days by flow cytometry analysis (Rvb= 7.52%); assay type: functional; conditions: time 10 day
T-cell [5] = test: Induction of cell differentiation in anti-CD3/CD28 stimulated naive T-cells assessed as number of Treg cells at 10 uM measured after 72 hrs by flow cytometry analysis (reference value: 24 %); assay type: functional
Mus musculus [6] = test: Antiinflammatory activity in DSS-induced ulcerative colitis mouse model assessed as reduction in MPO activity at 20 to 40 mg/kg, po administered for 10 consecutive days; assay type: functional, organism-based; conditions: dose 20-40 mg/kg, time 10.0 day
T-cell [7] = test: Induction of cell differentiation in anti-CD3/CD28 stimulated naive T-cells assessed as number of Treg cells at 30 uM measured after 72 hrs by flow cytometry analysis (reference value: 24 %); assay type: functional
Mus musculus [8] = test: Antiinflammatory activity in DSS-induced ulcerative colitis mouse model assessed as rescue of colon length shortening at 20 to 40 mg/kg, po administered for 10 consecutive days; assay type: functional, organism-based; conditions: dose 20-40 mg/kg, time 10.0 day
Mus musculus [9] = test: Antiinflammatory activity in DSS-induced ulcerative colitis mouse model assessed as reduction in DAI score a 20 to 40 mg/kg, po administered for 10 consecutive days; assay type: functional, organism-based; conditions: dose 20-40 mg/kg, time 10.0 day
T-cell [10] = test: Induction of cell differentiation in anti-CD3/CD28 stimulated naive T-cells assessed as upregulation of CD4+ CD25+ cell frequency at 10 uM measured after 72 hrs by flow cytometry analysis; assay type: functional, cell-based
Mus musculus [11] = test: Induction of Treg cell differentiation in DSS- induced ulcerative colitis mouse model assessed as number of Treg cells in colonic lamina proprias at 20 mg/kg, po administered for 10 consecutive days by flow cytometry analysis (Rvb= 7.97%); assay type: functional; conditions: time 10 day
T-cell [12] = test: Induction of cell differentiation in anti-CD3/CD28 stimulated naive T-cells assessed as number of Treg cells at 3 uM measured after 72 hrs by flow cytometry analysis (reference value: 24 %); assay type: functional
Mus musculus [13] = test: Induction of Treg cell differentiation in DSS- induced ulcerative colitis mouse model assessed as number of Treg cells in spleens at 20 mg/kg, po administered for 10 consecutive days by flow cytometry analysis (Rvb= 6.49%); assay type: functional; conditions: time 10 day
Mus musculus [14] = test: Induction of Treg cell differentiation in DSS- induced ulcerative colitis mouse model assessed as increase in IL-10 mRNA level at 20 to 40 mg/kg, po administered for 10 consecutive days by Q-PCR analysis; assay type: functional, organism-based; conditions: dose 20-40 mg/kg, time 10.0 day
T-cell [15] = test: Induction of cell differentiation in anti-CD3/CD28 stimulated naive T-cells assessed as upregulation of Foxp3 expression at 10 uM measured after 72 hrs by Q-PCR analysis; assay type: functional, cell-based
T-cell [16] = test: Induction of cell differentiation in anti-CD3/CD28 stimulated naive T-cells assessed as upregulation of IL-10 mRNA expression at 3 to 30 uM measured after 72 hrs by Q-PCR analysis; assay type: functional, cell-based; conditions: dose 3-30 µM
Mus musculus [17] = test: Induction of Treg cell differentiation in DSS- induced ulcerative colitis mouse model assessed as number of Treg cells in mesenteric lymph nodes at 20 mg/kg, po administered for 10 consecutive days by flow cytometry analysis (Rvb= 7.52%); assay type: functional; conditions: time 10 day
Mus musculus [18] = test: Induction of Treg cell differentiation in DSS- induced ulcerative colitis mouse model assessed as number of Treg cells in spleens at 40 mg/kg, po administered for 10 consecutive days by flow cytometry analysis (Rvb= 6.49%); assay type: functional; conditions: time 10 day
Mus musculus [19] = test: Induction of Treg cell differentiation in DSS- induced ulcerative colitis mouse model assessed as increase in Foxp3 mRNA level at 20 to 40 mg/kg, po administered for 10 consecutive days by Q-PCR analysis; assay type: functional, organism-based; conditions: dose 20-40 mg/kg, time 10.0 day
Mus musculus [20] = test: Induction of Treg cell differentiation in DSS- induced ulcerative colitis mouse model assessed as number of Treg cells in colonic lamina proprias at 40 mg/kg, po administered for 10 consecutive days by flow cytometry analysis (Rvb= 7.97%); assay type: functional; conditions: time 10 day

COc1cc2c(cc1O)CC1c3c(cc(OC)c(O)c3-2)CCN1C(=O)c1ccc(F)cc1 (stereo not given)
Activity (EL4): Non-Toxic

COc1cc2c(cc1O)C[C@@H]1NCCc3cc(OC)c(O)c-2c31
Activity (Mus musculus [1]): Active
Activity (Mus musculus [2]): Active
Activity (T-cell [3]): Active
Activity (Mus musculus [4]): 14.89%
Activity (T-cell [5]): 31.8%
Activity (Mus musculus [6]): Active
Activity (EL4): Non-Toxic
Activity (T-cell [7]): 44.2%
Activity (Mus musculus [8]): Active
Activity (Mus musculus [9]): Active
Activity (T-cell [10]): Active
Activity (Mus musculus [11]): 12.25%
Activity (T-cell [12]): 24.4%
Activity (Mus musculus [13]): 6.58%
Activity (Mus musculus [14]): Active
Activity (T-cell [15]): Active
Activity (T-cell [16]): Active
Activity (Mus musculus [17]): 9.8%
Activity (Mus musculus [18]): 7.41%
Activity (Mus musculus [19]): Active
Activity (Mus musculus [20]): 15.87%

COc1cc2c(cc1O)CC1c3c(cc(OC)c(O)c3-2)CCN1Cc1ccccc1 (stereo not given)
Activity (EL4): Non-Toxic

COc1cc2c(cc1O)CC1c3c(cc(OC)c(O)c3-2)CCN1Cc1cc(C)cc(C)c1 (stereo not given)
Activity (EL4): Non-Toxic

COc1cc2c(cc1O)CC1c3c(cc(OC)c(O)c3-2)CCN1Cc1ccc(Br)cc1 (stereo not given)
Activity (EL4): Non-Toxic
